Values quoted from earlier work in patent US7625708B1 (priority 2005, dated 2009).

Columns and labels:
[1] = rabbit, in vivo
[2] = system: Aldehyde Dehydrogenase (ALDH)
[3] = system: Glutathion-S-Transferase (GST)
[4] = system: NAD(P)H: Quinone Oxidoreductase I (NQO I)
[5] = system: Cytochrome P450 1A1 (CYP 1A1)
GDNF mRNA = conditions: rat, in vivo

## CNC(=O)ON=C(C)SC [methomyl]
[1]
  detection in the hair shaft: could be detected

## Cc1ccc2cc3c(ccc4ccccc43)c3c2c1CC3 [methylcholanthrene]
[2]
  induction of ALDH: showed induction of ALDH (cell culture)
[3]
  induction of GST: showed induction of GST (cell culture)
[4]
  induction of NQO I: showed induction of NQO I (cell culture)
[5]
  CYP1A1 activity: showed increase CYP1A1 activity (cell

## c1ccc(C2(N3CCCCC3)CCCCC2)cc1 [phencyclidine]
GDNF mRNA
  GDNF mRNA expression: GDNF mRNA expression increased in rats

## CCC1(c2ccccc2)C(=O)NC(=O)NC1=O [phenobarbital]
[5]
  CYP1A1 activity: showed increase CYP1A1 activity (cell

## O=c1cc(-c2ccccc2)oc2ccc3ccccc3c12 [β-naphthaoflavone]
[5]
  CYP1A1 activity: showed increase CYP1A1 activity (cell
